Measurements from ChEMBL document CHEMBL3580646, “SAR and Structural Analysis of Siderophore-Conjugated Monocarbam Inhibitors of Pseudomonas aeruginosa PBP3” (ACS Med Chem Lett, 2015).
≈ marks a conversion by molar mass, not a printed value.

Legend:
Pseudomonas aeruginosa [1] = test: Antibacterial activity against Pseudomonas aeruginosa PAO1 by broth microdilution method; format: functional
Pseudomonas aeruginosa [2] = test: Activity of Pseudomonas aeruginosa PBP3 assessed as acylation rate constant
[3] = Half life of the compound at pH 7.4 at 37 degC; format: ADME
[4] = Unbound fraction in human plasma after 16 hrs by LC-MS/MS analysis
[5] = Clearance in Han Wistar rat at 1 mg/kg, iv; format: ADME, organism-based; conditions: in vivo
[6] = Half life in Han Wistar rat at 1 mg/kg, iv; format: ADME, organism-based; conditions: in vivo
[7] = Volume of distribution at steady state in Han Wistar rat at 1 mg/kg, iv; format: ADME, organism-based; conditions: in vivo, read-out: Vdss
Pseudomonas aeruginosa [8] = test: Antibacterial activity against Pseudomonas aeruginosa; format: functional

| Compound | MIC (Pseudomonas aeruginosa [1]) | K (Pseudomonas aeruginosa [2]) | half-life [3] | fraction unbound at 16 h [4] | clearance [5] | half-life [6] | Vd [7] | MIC90 (Pseudomonas aeruginosa [8]) |
| --- | --- | --- | --- | --- | --- | --- | --- | --- |
| C=C[C@@H]1[C@H](NC(=O)/C(=N\OC(C)(C)C(=O)O)c2csc(N)n2)C(=O)N1C(=O)NS(=O)(=O)n1nc(-c2cc(=O)c(O)c[nH]2)n(CCCS(C)(=O)=O)c1=O | 2 µg/mL (≈ 2.54 µM) | 1.9 ×10⁵ /M/s | 1.58 days |  |  |  |  |  |
| C[C@H]1[C@H](NC(=O)/C(=N\OC(C)(C)C(=O)O)c2csc(N)n2)C(=O)N1C(=O)NS(=O)(=O)n1nc(-c2cc(=O)c(O)cn2O)n(CCS(C)(=O)=O)c1=O | 1 µg/mL (≈ 1.29 µM) | 2.5 ×10⁵ /M/s | 4.25 days | 0.2 |  |  |  |  |
| CC(C)(O/N=C(\C(=O)N[C@@H]1C(=O)N(C(=O)NS(=O)(=O)n2nc(-c3cc(=O)c(O)c[nH]3)n(CCCS(C)(=O)=O)c2=O)C1(C)C)c1csc(N)n1)C(=O)O | 8 µg/mL (≈ 10.1 µM) | 1.1 ×10⁵ /M/s | > 6.25 days |  |  |  |  |  |
| CC[C@@H]1[C@H](NC(=O)/C(=N\OC(C)(C)C(=O)O)c2csc(N)n2)C(=O)N1C(=O)NS(=O)(=O)n1nc(-c2cc(=O)c(O)c[nH]2)n(CCCS(C)(=O)=O)c1=O | 1 µg/mL (≈ 1.27 µM) | 8.8 ×10⁵ /M/s | 3.92 days |  |  |  |  |  |
| C[C@H]1[C@H](NC(=O)/C(=N\OC(C)(C)C(=O)O)c2csc(N)n2)C(=O)N1C(=O)NS(=O)(=O)n1nc(-c2cc(=O)c(O)cn2O)n(CCCS(C)(=O)=O)c1=O | 4 µg/mL (≈ 5.06 µM) | 1.5 ×10⁵ /M/s | 3.42 days | 0.12 |  |  |  |  |
| C[C@@H](O)[C@H]1C(=O)N2C(C(=O)O)=C(S[C@@H]3CN[C@H](C(=O)N(C)C)C3)[C@H](C)[C@H]12 [MEROPENEM] | 1 µg/mL (≈ 2.61 µM) | 4.9 ×10⁴ /M/s | 3.96 days |  |  |  |  |  |
| C[C@H]1[C@H](NC(=O)/C(=N\OC(C)(C)C(=O)O)c2csc(N)n2)C(=O)N1S(=O)(=O)O [AZTREONAM] | 4 µg/mL (≈ 9.19 µM) |  |  |  |  |  |  | ≥ 1020 µg/mL |
| C[C@@H]1[C@H](NC(=O)/C(=N\OC(C)(C)C(=O)O)c2csc(N)n2)C(=O)N1C(=O)NS(=O)(=O)n1nc(-c2cc(=O)c(O)c[nH]2)n(CCCS(C)(=O)=O)c1=O | 1 µg/mL (≈ 1.29 µM) | 1.6 ×10⁵ /M/s | 3.17 days |  |  |  |  |  |
| C[C@H]1[C@H](NC(=O)/C(=N\OC(C)(C)C(=O)O)c2csc(N)n2)C(=O)N1C(=O)NS(=O)(=O)n1nc(-c2cc(=O)c(O)c[nH]2)n(CCCS(=O)(=O)c2ccccc2)c1=O | 1 µg/mL (≈ 1.19 µM) | > 4 ×10⁵ /M/s | > 6.25 days | 0.03 |  |  |  |  |
| CCC[C@@H]1[C@H](NC(=O)/C(=N\OC(C)(C)C(=O)O)c2csc(N)n2)C(=O)N1C(=O)NS(=O)(=O)n1nc(-c2cc(=O)c(O)c[nH]2)n(CCCS(C)(=O)=O)c1=O | 4 µg/mL (≈ 4.98 µM) | 7.4 ×10⁵ /M/s | > 6.25 days |  |  |  |  |  |
| C[C@H]1[C@H](NC(=O)/C(=N\OC(C)(C)C(=O)O)c2csc(N)n2)C(=O)N1C(=O)NS(=O)(=O)n1nc(-c2cc(=O)c(O)c[nH]2)n(C[C@@H](O)CS(C)(=O)=O)c1=O | 1 µg/mL (≈ 1.26 µM) | 5.4 ×10⁵ /M/s | 3.62 days | 0.04 |  |  |  |  |
| C[C@H]1[C@H](NC(=O)/C(=N\OC(C)(C)C(=O)O)c2nc(N)sc2Cl)C(=O)N1C(=O)NS(=O)(=O)n1nc(-c2cc(=O)c(O)c[nH]2)n(CCCS(C)(=O)=O)c1=O | 1 µg/mL (≈ 1.24 µM) | 3.2 ×10⁵ /M/s | 4.92 days | 0.06 |  |  |  |  |
| Cn1c(-c2cc(=O)c(O)c[nH]2)nn(S(=O)(=O)NC(=O)N2C[C@H](NC(=O)/C(=N\OC(C)(C)C(=O)O)c3csc(N)n3)C2=O)c1=O | 0.78 µg/mL (≈ 1.19 µM) | 1.7 ×10⁵ /M/s |  | 0.05 |  |  |  |  |
| C=CC[C@@H]1[C@H](NC(=O)/C(=N\OC(C)(C)C(=O)O)c2csc(N)n2)C(=O)N1C(=O)NS(=O)(=O)n1nc(-c2cc(=O)c(O)c[nH]2)n(CCCS(C)(=O)=O)c1=O | 8 µg/mL (≈ 9.99 µM) | 5.9 ×10⁵ /M/s | 5.25 days |  |  |  |  |  |

Further lines, with some results ahead:

| MIC (Pseudomonas aeruginosa [1]) | K (Pseudomonas aeruginosa [2]) | half-life [3] | fraction unbound at 16 h [4] | clearance [5] | half-life [6] | Vd [7] | Compound | MIC90 (Pseudomonas aeruginosa [8]) |
| --- | --- | --- | --- | --- | --- | --- | --- | --- |
| 0.5 µg/mL (≈ 0.645 µM) | 4.1 ×10⁵ /M/s | 2.54 days | 0.08 |  |  |  | C[C@H]1[C@H](NC(=O)/C(=N\OC(C)(C)C(=O)O)c2csc(N)n2)C(=O)N1C(=O)NS(=O)(=O)n1nc(-c2cc(=O)c(O)c[nH]2)n(CCNS(C)(=O)=O)c1=O |  |
| 0.25 µg/mL (≈ 0.322 µM) | 5 ×10⁵ /M/s | 3.54 days | 0.27 | 9.5 mL/min/kg | 120 min | 0.26 L/kg | C[C@H]1[C@H](NC(=O)/C(=N\OC(C)(C)C(=O)O)c2nsc(N)n2)C(=O)N1C(=O)NS(=O)(=O)n1nc(-c2cc(=O)c(O)c[nH]2)n(CCCS(C)(=O)=O)c1=O |  |
| 0.25 µg/mL (≈ 0.343 µM) | 7.2 ×10⁵ /M/s | 4.88 days | 0.04 |  |  |  | C[C@H]1[C@H](NC(=O)/C(=N\OC(C)(C)C(=O)O)c2csc(N)n2)C(=O)N1C(=O)NS(=O)(=O)n1nc(-c2cc(=O)c(O)c[nH]2)n(C[C@@H](O)CO)c1=O |  |
| 0.13 µg/mL (≈ 0.171 µM) | 3.2 ×10⁵ /M/s | 3.58 days | 0.06 | 8.9 mL/min/kg | 150 min | 0.23 L/kg | C[C@H]1[C@H](NC(=O)/C(=N\OC(C)(C)C(=O)O)c2csc(N)n2)C(=O)N1C(=O)NS(=O)(=O)n1nc(-c2cc(=O)c(O)c[nH]2)n(CCS(C)(=O)=O)c1=O | 1 µg/mL (≈ 1.31 µM) |
| 0.78 µg/mL (≈ 1.09 µM) | 8.1 ×10⁵ /M/s |  | 0.06 |  |  |  | CC(C)(O/N=C(\C(=O)N[C@H]1CN(C(=O)NS(=O)(=O)n2nc(-c3cc(=O)c(O)c[nH]3)n(C[C@@H](O)CO)c2=O)C1=O)c1csc(N)n1)C(=O)O |  |
| 0.5 µg/mL (≈ 0.633 µM) | 3 ×10⁵ /M/s |  | 0.08 |  |  |  | C[C@H]1[C@H](NC(=O)/C(=N\OC(C)(C)C(=O)O)c2csc(N)n2)C(=O)N1C(=O)NS(=O)(=O)n1nc(-c2cc(=O)c(O)c[nH]2)n(CCCNS(C)(=O)=O)c1=O |  |
| 0.5 µg/mL (≈ 0.634 µM) | 3.6 ×10⁵ /M/s | 4.08 days |  | 12 mL/min/kg | 120 min | 0.35 L/kg | CC[C@H]1[C@H](NC(=O)/C(=N\OC(C)(C)C(=O)O)c2csc(N)n2)C(=O)N1C(=O)NS(=O)(=O)n1nc(-c2cc(=O)c(O)c[nH]2)n(CCCS(C)(=O)=O)c1=O |  |
| 0.25 µg/mL (≈ 0.323 µM) | 1.7 ×10⁵ /M/s | 3.88 days | 0.09 | 7.3 mL/min/kg | 180 min | 0.21 L/kg | C[C@H]1[C@H](NC(=O)/C(=N\OC(C)(C)C(=O)O)c2csc(N)n2)C(=O)N1C(=O)NS(=O)(=O)n1nc(-c2cc(=O)c(O)c[nH]2)n(CCCS(C)(=O)=O)c1=O |  |
| < 0.6 µg/mL | > 4 ×10⁵ /M/s | 4.25 days |  |  |  |  | C[C@H]1[C@H](NC(=O)/C(=N\OC(C)(C)C(=O)O)c2csc(N)n2)C(=O)N1C(=O)NS(=O)(=O)n1nc(-c2cc(=O)c(O)c[nH]2)n(CCS(N)(=O)=O)c1=O |  |
| 0.5 µg/mL (≈ 0.635 µM) | 2.1 ×10⁵ /M/s | 2.21 days |  | 11 mL/min/kg | 120 min | 0.18 L/kg | C=C[C@H]1[C@H](NC(=O)/C(=N\OC(C)(C)C(=O)O)c2csc(N)n2)C(=O)N1C(=O)NS(=O)(=O)n1nc(-c2cc(=O)c(O)c[nH]2)n(CCCS(C)(=O)=O)c1=O |  |
| 0.5 µg/mL (≈ 0.624 µM) | 2.5 ×10⁵ /M/s | 2.96 days | 0.09 |  |  |  | C[C@H]1[C@H](NC(=O)/C(=N\OC(C)(C)C(=O)O)c2csc(N)n2)C(=O)N1C(=O)NS(=O)(=O)n1nc(-c2cc(=O)c(O)c[nH]2)n(CC2(CS(C)(=O)=O)CC2)c1=O |  |
| 0.25 µg/mL (≈ 0.317 µM) | 6.2 ×10⁵ /M/s | 4.17 days | 0.07 |  |  |  | C[C@H]1[C@H](NC(=O)/C(=N\OC(C)(C)C(=O)O)c2csc(N)n2)C(=O)N1C(=O)NS(=O)(=O)n1nc(-c2cc(=O)c(O)c[nH]2)n(CCCCS(C)(=O)=O)c1=O |  |
| 0.5 µg/mL (≈ 0.624 µM) | 4.5 ×10⁵ /M/s | 3.92 days | 0.04 |  |  |  | C[C@H]1[C@H](NC(=O)/C(=N\OC(C)(C)C(=O)O)c2csc(N)n2)C(=O)N1C(=O)NS(=O)(=O)n1nc(-c2cc(=O)c(O)c[nH]2)n(CCC2(S(C)(=O)=O)CC2)c1=O |  |
